Results taken from publication PMC8533206 (Antioxidants, 2021).
Entries after “also recorded” stand apart in the source; their conditions may differ.

Columns and labels:
PC12 cells [1] = test: Cytotoxicity over PC12 cells (MTT assay); assay type: cell-based; conditions: 24 h
Experimental: (§1) PC12 cells were routinely maintained in RPMI-1640 media containing 100 IU/mL penicillin, and 100 μg/mL streptomycin supplemented by 10% heat-inactivated HS, 5% FBS in a humidified incubator containing 5% CO2 and 95% air at 37 °C [25]. The cell culture media was changed every two days. To perform experiments, cells were plated on poly-D-lysine/laminin-coated 24-well plates at a density of 3 × 10^5 cells/well and incubated for at least 24 h to allow cell adhesion.
To examine the effects of the test compounds on cell survival, cells were incubated in low serum media (1% HS, 1% FBS, 100 IU/mL penicillin, and 100 μg/mL streptomycin) with test compounds at the concentrations of 10 and 30 μM or an equivalent volume of vehicle control (DMSO at the final concentration of 0.3%) for 24 h. The media containing test compounds was sonicated at room temperature for 30 min to assure adequate dissolution in the media. To assess the protective effects of the test compounds on 6-OHDA- or rotenone-induced cell death in PC12 cells, cells were pre-treated with the compounds or rasagiline for 4 h. The pre-treated cells were then exposed to 6-OHDA (50 μM) or rotenone (1 μM) for 24 h.
After the desired treatment, cell viability was determined by MTT assay as described previously, with slight modification. Briefly, MTT was added to the cells at the final concentration of 0.5 mg/mL, followed by incubation for 3 h at 37 °C. The supernatants were carefully removed, and then 300 μL of DMSO was added to each well to dissolve formazan precipitate. The absorbance of the dissolved solution was measured at 550 nm using a microplate reader (SpectraMax M2e, Molecular Devices, Sunnyvale, CA, USA). The cell viability was presented as the percentage of the absorbance measured in the vehicle-treated control cells. […] Inhibition (%) = 100 × (Abssample − Abs6-OHDA or rotenone)/(Abscontrol − Abs6-OHDA or rotenone)

[2] = DPPH radical scavenging activity (cell-free); conditions: for DPPH radical scavenging activity (in words): cell-free, DPPH 150 µM
Experimental: DPPH radical scavenging activities of test compounds were assessed as previously described. Briefly, the reaction mixture containing desired concentrations of test compounds and DPPH radical solution (150 µM) prepared in 95% methanol was incubated for 30 min at 37 °C. The absorbance of the mixture was measured at 520 nm in a microplate reader (SpectraMax M2e). The radical scavenging activity was calculated using the following equation:DPPH radical scavenging activity (%) = 100 × (Abscontrol − Abssample)/Abscontrol where Abscontrol and Abssample represent the absorbances in the absence and in the presence of test compounds, respectively.

hMAO-B enzyme = molecular target: T1, hMAO-B enzyme (Homo sapiens, UniProt P27338); test: Michaelis-Menten kinetic study of MAO-B inhibition mode; assay type: biochemical; conditions: for Type of MAO-B inhibition: Lineweaver-Burk plots intersect at y-axis; for Ki: benzylamine 0.065-4 mM, inhibitor 10, 30, 100 nM, read-out: Ki (inhibition constant), MAO-B
T1 construct: purchased Sigma-Aldrich; host or cells: insect cells
T1 sequence (P27338 1-520): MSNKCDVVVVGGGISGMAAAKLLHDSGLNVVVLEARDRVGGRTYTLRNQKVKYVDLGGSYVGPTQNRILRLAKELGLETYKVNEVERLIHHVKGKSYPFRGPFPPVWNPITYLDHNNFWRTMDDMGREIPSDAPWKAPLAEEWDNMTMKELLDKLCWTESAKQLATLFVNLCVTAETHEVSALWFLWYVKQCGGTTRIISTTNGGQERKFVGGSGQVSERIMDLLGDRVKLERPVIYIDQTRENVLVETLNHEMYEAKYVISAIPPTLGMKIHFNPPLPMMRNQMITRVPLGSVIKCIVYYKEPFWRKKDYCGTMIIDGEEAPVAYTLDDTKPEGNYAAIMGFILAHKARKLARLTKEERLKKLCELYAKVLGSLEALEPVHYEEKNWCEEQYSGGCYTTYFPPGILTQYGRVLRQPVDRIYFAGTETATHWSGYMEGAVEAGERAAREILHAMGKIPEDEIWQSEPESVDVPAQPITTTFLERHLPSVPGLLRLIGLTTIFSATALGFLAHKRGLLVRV
Experimental: The type of MAO-B inhibition of the tested compounds was determined by Michaelis-Menten kinetic study following our recently reported study. The type of MAO-B inhibition of the tested compound(s) was determined by Michaelis–Menten kinetic study. The catalytic rates of the hMAO-B enzyme in the absence or in the presence of three different concentrations (10, 30, and 100 nM) of the tested compound were measured at seven different concentrations of the benzylamine (0.065, 0.125, 0.25, 0.5, 1, 2, and 4 mM). The corresponding progression curves and the Lineweaver-Burk plots were generated using GraphPad Prism 7 (GraphPad Software, Inc., La Jolla, CA, USA). The maximal velocity (Vmax), the Michaelis constant (Km), and the inhibition constant (Ki) were calculated using SigmaPlot® 13.0.
The initial rates of MAO-B inhibition in the absence and presence of the tested compound were measured at various concentrations (0.065, 0.125, 0.25, 0.5, 1, 2, and 4 mM) of benzylamine (a selective substrate for MAO-B). The corresponding progression curves and the Lineweaver-Burk plots were generated using GraphPad Prism 7. Both Michaelis–Menten and the Lineweaver-Burk plots were depicted in Figure 4 and Figure 5. […] The maximal velocity (Vmax), the Michaelis constant (Km), and the inhibition constant (Ki) were calculated using SigmaPlot®.

PC12 cells [3] = test: Protective effect against 6-OHDA-induced cytotoxicity in PC12 cells (MTT); conditions: Rattus norvegicus, PC-12, read-out: IC50 against 6-OHDA-induced cytotoxicity
Experimental: as §1
(§2) To examine the effects of the test compounds on cell survival, cells were incubated in low serum media (1% HS, 1% FBS, 100 IU/mL penicillin, and 100 μg/mL streptomycin) with test compounds at the concentrations of 10 and 30 μM or an equivalent volume of vehicle control (DMSO at the final concentration of 0.3%) for 24 h. The media containing test compounds was sonicated at room temperature for 30 min to assure adequate dissolution in the media. […]
(§3) After the desired treatment, cell viability was determined by MTT assay as described previously, with slight modification. […] The absorbance of the dissolved solution was measured at 550 nm using a microplate reader (SpectraMax M2e, Molecular Devices, Sunnyvale, CA, USA). The cell viability was presented as the percentage of the absorbance measured in the vehicle-treated control cells. […]

PC12 cells [4] = test: Protective effect against rotenone-induced cytotoxicity in PC12 cells (MTT); conditions: Rattus norvegicus, PC-12, read-out: IC50 against rotenone-induced cytotoxicity
Experimental: as §1, §2, §3

Q: For `COC(=O)c1ccc2c(ccn2C(=O)c2ccc(Cl)c(Cl)c2)c1` [Compound 7b, Methyl 1-(3,4-dichlorobenzoyl)-1H-indole-5-carboxylate], which “Cytotoxic effect on PC12 cell viability” value (PC12 cells [1]; 10 μM) is on record?
A: did not show any cytotoxic effects

Q: And the “DPPH radical scavenging activity (in words)” value [2]?
A: mild DPPH radical scavenging activities

Q: Which “Cytotoxic effect on PC12 cell viability” value (PC12 cells [1]; 10 μM) does the source give for `O=C(Nc1ccc(I)cc1)c1ccc2[nH]ccc2c1` [Compound 8a, N-(4-iodophenyl)-1H-indole-5-carboxamide] here?
A: did not show any cytotoxic effects

Q: What about the “Type of MAO-B inhibition” value (hMAO-B enzyme) of the same compound?
A: competitive, and accordingly, reversible; also recorded: Competitive inhibition

Q: And the Ki (hMAO-B enzyme)?
A: 10.3 nM

Q: With `O=C(Nc1ccc(Br)cc1)c1ccc2[nH]ccc2c1` [Compound 8b, N-(4-bromophenyl)-1H-indole-5-carboxamide] as the compound, how does the IC50 (PC12 cells [3]) read?
A: 2800 nM

Q: What about the IC50 (PC12 cells [4]) of the same compound?
A: 3300 nM

Q: And the “Cytotoxic effect on PC12 cell viability” value (PC12 cells [1]; 10 μM)?
A: did not show any cytotoxic effects

Q: And the “Cytotoxic effect on PC12 cell viability” value (PC12 cells [1]; 30 μM)?
A: significant reduction in cell viability

Q: And the “Type of MAO-B inhibition” value (hMAO-B enzyme)?
A: competitive, and accordingly, reversible; also recorded: Competitive inhibition

Q: And the Ki (hMAO-B enzyme)?
A: 6.63 nM

Q: And the “Maximal DPPH radical scavenging effect” value ([2]; 30 and 100 µM)?
A: approximately 10%

Q: What about the “DPPH radical scavenging activity (in words)” value [2] of the same compound?
A: mild DPPH radical scavenging activity; also recorded: mild DPPH radical scavenging activities

Q: What does the source list for `O=C(Nc1ccc2c(c1)OCO2)c1ccc2[nH]ccc2c1` [Compound 8e, N-(benzo[d][1,3]dioxol-5-yl)-1H-indole-5-carboxamide]?
A: Cytotoxic effect on PC12 cell viability (PC12 cells [1]; 10 μM): did not show any cytotoxic effects; DPPH radical scavenging activity (in words) [2]: mild DPPH radical scavenging activities
